{"source": "patent US20160095867A1", "about": "“BET INHIBITION THERAPY FOR HEART DISEASE” (DANA-FARBER CANCER INSTITUTE, INC., priority 2013, published 2016)", "key": {"NRVM": {"tested_on": "NRVM", "test": "PE-mediated cardiomyocyte hypertrophy in NRVM (cell area measurement)", "type": "cell-based, rat", "details": "nanomolar doses of JQ1 (250 nM), PE 100 μM, 48 hours", "method": "NRVM were isolated from the hearts of 2 day old Sprague-Dawley rat pups (Charles River) and maintained under standard conditions as described (Haldar et al., 2010). The cells were differentially plated for 1.5 h in cell culture dishes to remove contaminating non-myocytes. Unless otherwise stated, NRVM were plated at a density of 10^5 cells/mL. Cells were initially plated in growth medium (DMEM supplemented with 5% FBS, 100 U/mL penicillin-streptomycin, and 2 mM L-glutamine) for 24-36 hours and maintained in serum-free media thereafter (DMEM supplemented with 0.1% BSA, 1% insulin-transferrin-selenium liquid media supplement (Sigma 13146), 100 U/mL penicillin-streptomycin, and 2 mM L-glutamine). Media was changed every 2-3 days. Prior to stimulation with agonists, NRVM were maintained in serum-free medium for 48-72 hours. For hypertrophic stimulation, NRVM were incubated with JQ1 versus DMSO at indicated concentrations for 6 h followed by stimulation with PE (100 μM) for indicated timepoints.\nNRVM were plated on glass coverslips in 6-well dishes at a density of 10^5 cells/mL. After treatments, cells were briefly fixed in PBS containing 2% PFA, permeabilized with PBST/0.1% Triton X-100, and blocked in PBST/5% horse serum. Primary antibody was anti-sarcomeric α-actinin (Sigma A7811) at 1:800. Fluorophore-tagged anti-mouse secondary antibody (α-mouse Alexa 488 green) was used at 1:1000 dilution. Coverslips were mounted on glass slides with mounting media containing DAPI. Quantitation of cardiomyocyte cell surface area was performed on α-actinin-stained cardiomyocytes using fluorescent microscopy and NIH Image J software as previously described (Liang et al., 2001). Analysis consisted of at least 100 cardiomyocytes in 20-30 fields at 400× magnification. This process was replicated in a least three independent experiments, and the data were combined."}, "mice subject to TAC": {"tested_on": "mice subject to TAC", "test": "TAC model with pre-established pathology, JQ1 begun day 18 post-TAC", "type": "in vivo, mouse", "excerpt": "Adult mice were subjected to pressure overload using transverse aortic constriction (TAC). JQ1 or vehicle was begun on day 18 post-TAC, a time point when significant pathology has already developed (FIG. 11). […] (N=6-12 per group). […] For example, patients typically present with pre-existing or established cardiac hypertrophy and/or heart failure."}, "[1]": {"tested_on": "mice with myocardial infarction (MI)", "test": "Large anterior wall myocardial infarction (permanent proximal LAD ligation) model", "type": "in vivo, mouse", "details": "25 or 50 mg/kg/day IP from postoperative day 5", "method": "Mice were subjected to permanent proximal LAD ligation to create a large anterior wall myocardial infarction (MI). JQ1 or vehicle was begun at the indicated doses (25 mg/kg/day or 50 mg/kg/day, intraperitoneal injection) on postoperative day 5. […] JQ1 attenuates the development of (FIGS. 12B and 15B) LV systolic dysfunction, (FIGS. 12C and 15C) LV cavity dilation, (FIGS. 12D and 15D) LV wall thickening, and (FIGS. 12E and 15E) cardiomegaly after a large anterior wall myocardial infarction. (FIG. 12—N=5 per group; FIG. 15—N=5 in sham group, N=10 in MI group). […] After a myocardial infarction, abnormal remodeling of the heart occurs in distant areas of non-infarcted myocardium, leading to cardiac dilation, enlargement, and contractile dysfunction. This is a very common cause of heart failure. […] Neither this model nor the TAC models involve atherosclerosis. Therefore, the ability to protect the heart in these settings are unrelated to any effects on atherosclerosis."}, "[2]": {"tested_on": "Neonatal rat ventricular cardiomyocytes (NRVM)", "test": "Doxorubicin mediated apoptosis in cultured cardiomyocytes (TUNEL)", "type": "cell-based", "details": "JQ1 250 nM 3 hours, then Doxo 1 μM 24 hours", "method": "Doxorubicin (Doxo) is an anthracycline compound commonly used as cytotoxic chemotherapy for cancer. Doxo causes dose-dependent toxicity to cardiomyocytes and can cause cardiac enlargement, fibrosis and heart failure in patients. Cardiotoxicity is dose-limiting for anthracyclines such as Doxorubicin and Daunorubicin. […] Neonatal rat ventricular cardiomyocytes (NRVM) were treated with or without JQ1 (250 nM) for 3 hours, followed by treatment±Doxo (1 μM) for another 24 hours. Cells were assayed for apoptosis by TUNEL staining and nuclei were counterstained with DAPI."}, "[3]": {"tested_on": "primary Rat Aortic Smooth Muscle Cells (RASMC)", "test": "PDGF-bb induced pathologic smooth muscle cell activation", "type": "cell-based", "details": "JQ1 500 nM, PDGF-bb 10 ng/mL", "method": "All experiments were performed with primary Rat Aortic Smooth Muscle Cells (RASMC), PDGF-bb (10 ng/mL), and JQ1 (500 nM). JQ1 blocks hallmark features of pathologic smooth muscle activation in response to the agonist PDGF-bb such as (FIG. 14A) proliferation (quantified by radiolabeled thymidine incorporation), (FIG. 14B) migration (quantified using a Transwell migration assay), and (FIG. 14C) pathologic gene induction (qRT-PCR shown for Ptgs2/Cox2). These findings support the efficacy of BET bromodomain inhibition against pathologic smooth muscle growth (n=3-6 per group; *p<0.05 vs. vehicle; **p<0.05 vs. PDGF-bb)."}, "[4]": {"details": "adult mice, 50 mg/kg/day; cited from earlier work"}}, "data": [{"compound": "Cc1sc2c(c1C)C(c1ccc(Cl)cc1)=N[C@@H](CC(=O)OC(C)(C)C)c1nnc(C)n1-2", "note": "[JQ1]", "values": [{"measurement": "phenylephrine (PE) mediated cellular hypertrophy (cardiomyocyte area)", "setting": "NRVM", "value": "significantly blocked"}, {"measurement": "progression of LV cavity dilation", "setting": "mice subject to TAC", "value": "significantly attenuates"}, {"measurement": "progression of LV systolic dysfunction", "setting": "mice subject to TAC", "value": "significantly attenuates"}, {"measurement": "progression of LV wall thickening", "setting": "mice subject to TAC", "value": "significantly attenuates"}, {"measurement": "progression of cardiomegaly", "setting": "mice subject to TAC", "value": "significantly attenuates"}, {"measurement": "development of LV cavity dilation after MI", "setting": "[1]", "value": "attenuates"}, {"measurement": "development of LV systolic dysfunction after MI", "setting": "[1]", "value": "attenuates"}, {"measurement": "development of LV wall thickening after MI", "setting": "[1]", "value": "attenuates"}, {"measurement": "development of cardiomegaly after MI", "setting": "[1]", "value": "attenuates"}, {"measurement": "mortality, myocardial rupture, LV aneurysm formation vs. vehicle control", "setting": "[1]", "value": "No excess mortality, myocardial rupture, and LV aneurysm formation"}, {"measurement": "Doxo induced cardiotoxicity (apoptosis, TUNEL positive nuclei)", "setting": "[2]", "value": "blocks"}, {"measurement": "PDGF-bb induced migration (Transwell migration assay)", "setting": "[3]", "value": "blocks"}, {"measurement": "PDGF-bb induced pathologic gene induction (qRT-PCR, Ptgs2/Cox2)", "setting": "[3]", "value": "blocks"}, {"measurement": "PDGF-bb induced proliferation (radiolabeled thymidine incorporation)", "setting": "[3]", "value": "blocks"}, {"measurement": "toxicity on chronic administration", "setting": "[4]", "value": "without significant toxicity"}]}]}
